This is an account of results in patent publication EP3888661A1, “COMPOSITIONS COMPRISING 2 -FUCOSYLLACTOSE TO PREVENT VIRAL INFECTIONS” (FrieslandCampina Nederland B.V., priority 2020, dated 2021).

SMILES strings stand for the structures.

The conditions of data set [1]: cited from earlier work.
Data set [2] has as its system anaerobic microbiota from human origin. The data set can be described thus: TIM-2 in vitro fermentation model of the human colon, SCFA/acetate production. The source says: The in vitro fermentation studies were done using the TIM-2 model. This is a validated, dynamic, computer-controlled model that simulates the human colon, mimicking body temperature, lumen pH, absorption of water and microbial metabolites through a semipermeable membrane inside the model, mixing and transporting the intestinal contents with peristaltic movements, using an anaerobic microbiota from human origin, it corresponds basically to the model as described in Minekus, M., etal. Appl. Microbiol. Biotechnol. 1999 53, 108-114. doi: 10.1007/ s002530051622 and Kortman et al., Frontiers in Microbiology 2016, 6, 1481. Characteristics of the movements of the contents in the TIM-2 system was simulated using an increase of the pH and peristaltic movements of the contents in the system using peristaltic pumps as described in Minekus, M (1998. Development and validation of a dynamic model of the gastrointestinal tract. PhD thesis, Delft University of Technology, The Netherlands).
SCFA analysis was performed at Brightlabs B.V., Venlo, The Netherlands), according to (Sáyago-Ayerdi SG, et al. Food Research International, E-pub date 13 December 2017; Sayago Ayerdi et al Food Research International 118 (2019) 89-95). […]
Samples (1 mL) were taken for Short Chain Fatty Acid (SCFA) analysis after 1, 2, 4, 6, 8 and 24 h after test product insertion; cumulative absolute amounts of SCFA were determined. […]

`C[C@@H]1O[C@@H](O[C@H]2[C@H](O[C@H]3[C@H](O)[C@@H](O)C(O)O[C@@H]3CO)O[C@H](CO)[C@H](O)[C@@H]2O)[C@@H](O)[C@H](O)[C@@H]1O` (stereo partly drawn) [2'-FL, 2'-Fucosyllactose]: the “daily dosage tested as safe” value in data set [1] is 20 g. Further, the acetate production in data set [2] (7.5 gram test product as single shot, cumulative acetate produced between 8 and 24 hours after insertion, representing the distal colon, pooled fecal microbiota of 20 healthy subjects) was 17 mmol; in data set [2] (fecal microbiota samples of lean and of obese subjects in the TIM-2 model system) it was “An increase in the acetate production was observed”.
